In this test the test system is BDF1 mice, s.c. Lewis lung carcinoma, T/C %. Description: NCI In Vivo Anticancer Drug Screen. Data for tumor model Lewis Lung Carcinoma (subcutaneous) in B6D2F1 (BDF1) mice. In a few lines: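 The value reflects a ratio in which the treated cohort's survival time or tumour size is compared against mice receiving only vehicle.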
The mark [1] stands for this setting: endpoint: mean tumor weight, dose: 50.0 mg/kg/injection, schedule: Q01DX011 (ip), vehicle: saline, higher = larger tumour.
Where [2] appears, read: endpoint: median survival time, dose: 25.0 mg/kg/injection, schedule: Q01DX009 (ip), vehicle: Klucel (hydroxypropylcellulose) (HPC), higher = longer survival.
[3] abbreviates: endpoint: median survival time, dose: 50.0 mg/kg/injection, schedule: Q01DX009 (ip), vehicle: Klucel (hydroxypropylcellulose) (HPC), higher = longer survival.
The mark [4] stands for this setting: endpoint: median survival time, dose: 12.5 mg/kg/injection, schedule: Q01DX009 (ip), vehicle: Klucel (hydroxypropylcellulose) (HPC), higher = longer survival.

“And” between values parts separate entries of the source, which are not always exact repeats. Identical values can stand only once. Inconclusive results are not listed. *1 amine or outer side, *2 acyl side, *3 side chain or, on linkers, in order; H or OH if unused. Where a SMILES comes first, the peptide text is derived from it. Bridges are numbered along the chain shown (N, C = ends). Roman numbers before positions name the chains, in order. [ ]: non-standard residue; d: D form. Actinocin(9to1) = Cc1c2oc3c(C)ccc(C(=O)[*:1])c3nc-2c(C(=O)[*:2])c(N)c1=O; aThr = C[C@H](O)[C@H](N)C(=O)O; NMeV = CN[C@H](C(=O)O)C(C)C; Sar = CNCC(=O)O

The results in this text go back to PubChem BioAssay AID270 (DTP/NCI, 2004).

Take `CN(N=O)C(=O)N[C@@H](C=O)[C@@H](O)[C@H](O)[C@H](O)CO`: the T/C is 93 % of control (endpoint: mean tumor weight (est.), dose: 20.0 mg/kg/injection, schedule: Q01DX009 (ip), vehicle: water, higher = larger tumour); 65 % of control (endpoint: mean tumor weight (est.), dose: 40.0 mg/kg/injection, schedule: Q01DX009 (ip), vehicle: water, higher = larger tumour); 42 % of control (endpoint: mean tumor weight (est.), dose: 80.0 mg/kg/injection, schedule: Q01DX009 (ip), vehicle: water, higher = larger tumour); 115 % of control (endpoint: median survival time, dose: 20.0 mg/kg/injection, schedule: Q01DX009 (ip), vehicle: water, higher = longer survival); 99 % of control and 105 % of control (endpoint: median survival time, dose: 40.0 mg/kg/injection, schedule: Q01DX001 (ip), vehicle: other, higher = longer survival); 86 % of control (endpoint: median survival time, dose: 40.0 mg/kg/injection, schedule: Q01DX001 (ip), vehicle: saline, higher = longer survival). In addition, the T/C runs as follows: (endpoint: median survival time, dose: 40.0 mg/kg/injection, schedule: Q01DX009 (ip), vehicle: water, higher = longer survival) 94 % of control; (endpoint: median survival time, dose: 80.0 mg/kg/injection, schedule: Q01DX001 (ip), vehicle: other, higher = longer survival) 90 % of control and 108 % of control; (endpoint: median survival time, dose: 80.0 mg/kg/injection, schedule: Q01DX001 (ip), vehicle: saline, higher = longer survival) 94 % of control; (endpoint: median survival time, dose: 160.0 mg/kg/injection, schedule: Q01DX001 (ip), vehicle: other, higher = longer survival) 98 % of control and 111 % of control; (endpoint: median survival time, dose: 160.0 mg/kg/injection, schedule: Q01DX001 (ip), vehicle: saline, higher = longer survival) 108 % of control; (endpoint: median survival time, dose: 320.0 mg/kg/injection, schedule: Q01DX001 (ip), vehicle: other, higher = longer survival) 99 % of control. In addition, the T/C (endpoint: median survival time, dose: 320.0 mg/kg/injection, schedule: Q01DX001 (ip), vehicle: saline, higher = longer survival) was 91 % of control.

Consider `O=P1(NCCCl)OCCCN1CCCl` (centres undefined), for which the T/C by setting is: (endpoint: mean tumor weight, dose: 12.5 mg/kg/injection, schedule: Q01DX011 (ip), vehicle: saline, higher = larger tumour) 114 % of control; (endpoint: mean tumor weight, dose: 25.0 mg/kg/injection, schedule: Q01DX011 (ip), vehicle: saline, higher = larger tumour) 14 % of control; under setting [1], 2 % of control; under setting [2], 100 % of control; (endpoint: median survival time, dose: 50.0 mg/kg/injection, schedule: Q01DX001 (ip), vehicle: saline, higher = longer survival) 106 % of control; under setting [3], 150 % of control. Besides, the T/C was 124 % of control (endpoint: median survival time, dose: 100.0 mg/kg/injection, schedule: Q01DX001 (ip), vehicle: saline, higher = longer survival); 200 % of control and 243 % of control (endpoint: median survival time, dose: 200.0 mg/kg/injection, schedule: Q01DX001 (ip), vehicle: saline, higher = longer survival); 200 % of control and 243 % of control (endpoint: median survival time, dose: 400.0 mg/kg/injection, schedule: Q01DX001 (ip), vehicle: saline, higher = longer survival); 243 % of control (endpoint: median survival time, dose: 800.0 mg/kg/injection, schedule: Q01DX001 (ip), vehicle: saline, higher = longer survival).

Turning to `CSc1ncc(Br)c(Sc2nc(N)nc3nc[nH]c23)n1`, the T/C is 57 % of control (endpoint: mean tumor weight, dose: 5.0 mg/kg/injection, schedule: Q01DX011 (ip), vehicle: other, higher = larger tumour); 100 % of control (endpoint: mean tumor weight, dose: 10.0 mg/kg/injection, schedule: Q01DX011 (ip), vehicle: other, higher = larger tumour); 65 % of control (endpoint: mean tumor weight, dose: 20.0 mg/kg/injection, schedule: Q01DX011 (ip), vehicle: other, higher = larger tumour).

Take `CC(O)CC1CCCN1C` (centres undefined): the T/C is 208 % of control under setting [1]; 103 % of control (endpoint: mean tumor weight, dose: 100.0 mg/kg/injection, schedule: Q01DX011 (ip), vehicle: saline, higher = larger tumour); 179 % of control (endpoint: mean tumor weight, dose: 200.0 mg/kg/injection, schedule: Q01DX011 (ip), vehicle: saline, higher = larger tumour).

On to `CC(C)=CCC/C(C)=C/CNCCc1c[nH]c2ccccc12`, for which the T/C by setting is: (endpoint: median survival time, dose: 6.25 mg/kg/injection, schedule: Q01DX009 (ip), vehicle: Klucel (hydroxypropylcellulose) (HPC), higher = longer survival) 100 % of control; under setting [4], 101 % of control; under setting [2], 97 % of control.

For the compound `Cc1c2oc3c(C)ccc(C(=O)N[C@@H]4C(=O)N[C@H](C(C)C)C(=O)N5CCC[C@H]5C(=O)N(C)CC(=O)N(C)[C@@H](C(C)C)C(=O)O[C@H]4C)c3nc-2c(C(=O)N[C@@H]2C(=O)N[C@H](C(C)C)C(=O)N3CCC[C@H]3C(=O)N(C)CC(=O)N(C)[C@@H](C(C)C)C(=O)O[C@H]2C)c(N)c1=O` (I: [aThr][dV]P[Sar][NMeV] / II: [aThr][dV]P[Sar][NMeV]; ester I:1-I:C, II:1-II:C; linker I:N-II:N via Actinocin(9to1)), the T/C is 89 % of control (endpoint: mean tumor weight, dose: 0.03 mg/kg/injection, schedule: Q01DX011 (ip), vehicle: saline, higher = larger tumour); 55 % of control (endpoint: mean tumor weight, dose: 0.05 mg/kg/injection, schedule: Q01DX011 (ip), vehicle: saline, higher = larger tumour); 122 % of control (endpoint: mean tumor weight, dose: 12.0 micrograms/kg/injection, schedule: Q01DX011 (ip), vehicle: other, higher = larger tumour); 95 % of control and 98 % of control (endpoint: mean tumor weight, dose: 25.0 micrograms/kg/injection, schedule: Q01DX011 (ip), vehicle: other, higher = larger tumour); 42 % of control and 49 % of control (endpoint: mean tumor weight, dose: 50.0 micrograms/kg/injection, schedule: Q01DX011 (ip), vehicle: other, higher = larger tumour); 98 % of control and 122 % of control (endpoint: median survival time, dose: 12.5 micrograms/kg/injection, schedule: Q01DX009 (ip), vehicle: saline, higher = longer survival). Moreover, the T/C reads like this: (endpoint: median survival time, dose: 12.5 micrograms/kg/injection, schedule: Q01DX009 (ip), vehicle: water, higher = longer survival) 112 % of control; (endpoint: median survival time, dose: 13.0 micrograms/kg/injection, schedule: Q01DX009 (ip), vehicle: saline, higher = longer survival) 116 % of control; (endpoint: median survival time, dose: 25.0 micrograms/kg/injection, schedule: Q01DX009 (ip), vehicle: water, higher = longer survival) 120 % of control; (endpoint: median survival time, dose: 50.0 micrograms/kg/injection, schedule: Q01DX009 (ip), vehicle: water, higher = longer survival) 102 % of control; (endpoint: median survival time, dose: 75.0 micrograms/kg/injection, schedule: Q04DX003 (ip), vehicle: water, higher = longer survival) 153 % of control; (endpoint: median survival time, dose: 150.0 micrograms/kg/injection, schedule: Q04DX003 (ip), vehicle: water, higher = longer survival) 105 % of control. Further, the T/C (endpoint: median tumor weight (est.), dose: 12.0 micrograms/kg/injection, schedule: Q01DX009 (ip), vehicle: saline, higher = larger tumour) is 88 % of control; the T/C (endpoint: median tumor weight (est.), dose: 25.0 micrograms/kg/injection, schedule: Q01DX009 (ip), vehicle: saline, higher = larger tumour) is 98 % of control; the T/C (endpoint: median tumor weight (est.), dose: 50.0 micrograms/kg/injection, schedule: Q01DX009 (ip), vehicle: saline, higher = larger tumour) was 70 % of control; the T/C (endpoint: median tumor weight (est.), dose: 100.0 micrograms/kg/injection, schedule: Q01DX009 (ip), vehicle: saline, higher = larger tumour) is 51 % of control.

`FC(F)(F)c1cc(CN(CCCl)CCCl)cc(C(F)(F)F)c1`: the T/C runs as follows: under setting [4], 90 % of control; under setting [3], 90 % of control.

Consider `CCS(=O)(=O)Nc1cccc(Nc2c3cccc(C)c3nc3c(C)cccc23)c1OC`, for which the T/C is 111 % of control (endpoint: median survival time, dose: 12.5 mg/kg/injection, schedule: Q01DX011 (ip), vehicle: saline with Tween-80, higher = longer survival); 101 % of control (endpoint: median survival time, dose: 25.0 mg/kg/injection, schedule: Q01DX011 (ip), vehicle: saline with Tween-80, higher = longer survival); 82 % of control (endpoint: median tumor weight (est.), dose: 12.5 mg/kg/injection, schedule: Q01DX011 (ip), vehicle: saline with Tween-80, higher = larger tumour); 44 % of control (endpoint: median tumor weight (est.), dose: 25.0 mg/kg/injection, schedule: Q01DX011 (ip), vehicle: saline with Tween-80, higher = larger tumour).

Regarding `CC1OC(O[C@@H]2C=C3CC[C@@H]4[C@H](CC[C@]5(C)[C@@H](c6ccc(=O)oc6)CC[C@]45O)[C@@]3(C)CC2)C(O)C(O)C1O` (some centres undefined), the T/C runs as follows: (endpoint: mean tumor weight, dose: 1.25 mg/kg/injection, schedule: Q01DX011 (ip), vehicle: saline, higher = larger tumour) 114 % of control; (endpoint: mean tumor weight, dose: 2.5 mg/kg/injection, schedule: Q01DX011 (ip), vehicle: saline, higher = larger tumour) 90 % of control; (endpoint: mean tumor weight, dose: 5.0 mg/kg/injection, schedule: Q01DX011 (ip), vehicle: saline, higher = larger tumour) 64 % of control; (endpoint: mean tumor weight, dose: 10.0 mg/kg/injection, schedule: Q01DX011 (ip), vehicle: saline, higher = larger tumour) 83 % of control.

As to `COC1=NCN=C2SC=C(N)N=C12`, the T/C reads like this: (endpoint: median survival time, dose: 12.5 mg/kg/injection, schedule: Q01DX009 (ip), vehicle: saline, higher = longer survival) 107 % of control; (endpoint: median survival time, dose: 25.0 mg/kg/injection, schedule: Q01DX009 (ip), vehicle: saline, higher = longer survival) 122 % of control; (endpoint: median survival time, dose: 50.0 mg/kg/injection, schedule: Q01DX009 (ip), vehicle: saline, higher = longer survival) 110 % of control.

Take `CC(=O)c1c(O)c(C)c(O)c2c1OC1=CC(=O)C(C(C)=O)C(=O)C12C` (centres undefined): the T/C by setting is: (endpoint: median survival time, dose: 6.25 mg/kg/injection, schedule: Q01DX009 (ip), vehicle: gum acacia, higher = longer survival) 111 % of control; (endpoint: median survival time, dose: 12.5 mg/kg/injection, schedule: Q01DX009 (ip), vehicle: gum acacia, higher = longer survival) 95 % of control and 110 % of control; (endpoint: median survival time, dose: 25.0 mg/kg/injection, schedule: Q01DX009 (ip), vehicle: gum acacia, higher = longer survival) 101 % of control and 102 % of control and 123 % of control; (endpoint: median survival time, dose: 50.0 mg/kg/injection, schedule: Q01DX009 (ip), vehicle: gum acacia, higher = longer survival) 101 % of control and 113 % of control and 115 % of control; (endpoint: median survival time, dose: 100.0 mg/kg/injection, schedule: Q01DX009 (ip), vehicle: gum acacia, higher = longer survival) 98 % of control and 116 % of control and 123 % of control; (endpoint: median survival time, dose: 200.0 mg/kg/injection, schedule: Q01DX009 (ip), vehicle: gum acacia, higher = longer survival) 106 % of control.

With `O=NN(CCCl)C(=O)Nc1ccc(CCO)cc1`, the T/C is, setting by setting: (endpoint: mean tumor weight, dose: 10.0 mg/kg/injection, schedule: Q01DX001 (ip), vehicle: carboxymethylcellulose (CMC), higher = larger tumour) 43 % of control; (endpoint: mean tumor weight, dose: 20.0 mg/kg/injection, schedule: Q01DX001 (ip), vehicle: carboxymethylcellulose (CMC), higher = larger tumour) 22 % of control.
